Here are results for 26 compounds from ChEMBL document CHEMBL4229486, “Design and synthesis of novel thiadiazole-thiazolone hybrids as potential inhibitors of the human mitotic kinesin Eg5” (Bioorg Med Chem Lett, 2018).

pIC50: −log10 of the molar value. The source made the active and inactive calls. No cut-off for these calls is given here.

In assay [1] the target is T1, Kinesin-like protein KIF11 (Homo sapiens) (UniProt P52732).
T1 sequence (whole entry): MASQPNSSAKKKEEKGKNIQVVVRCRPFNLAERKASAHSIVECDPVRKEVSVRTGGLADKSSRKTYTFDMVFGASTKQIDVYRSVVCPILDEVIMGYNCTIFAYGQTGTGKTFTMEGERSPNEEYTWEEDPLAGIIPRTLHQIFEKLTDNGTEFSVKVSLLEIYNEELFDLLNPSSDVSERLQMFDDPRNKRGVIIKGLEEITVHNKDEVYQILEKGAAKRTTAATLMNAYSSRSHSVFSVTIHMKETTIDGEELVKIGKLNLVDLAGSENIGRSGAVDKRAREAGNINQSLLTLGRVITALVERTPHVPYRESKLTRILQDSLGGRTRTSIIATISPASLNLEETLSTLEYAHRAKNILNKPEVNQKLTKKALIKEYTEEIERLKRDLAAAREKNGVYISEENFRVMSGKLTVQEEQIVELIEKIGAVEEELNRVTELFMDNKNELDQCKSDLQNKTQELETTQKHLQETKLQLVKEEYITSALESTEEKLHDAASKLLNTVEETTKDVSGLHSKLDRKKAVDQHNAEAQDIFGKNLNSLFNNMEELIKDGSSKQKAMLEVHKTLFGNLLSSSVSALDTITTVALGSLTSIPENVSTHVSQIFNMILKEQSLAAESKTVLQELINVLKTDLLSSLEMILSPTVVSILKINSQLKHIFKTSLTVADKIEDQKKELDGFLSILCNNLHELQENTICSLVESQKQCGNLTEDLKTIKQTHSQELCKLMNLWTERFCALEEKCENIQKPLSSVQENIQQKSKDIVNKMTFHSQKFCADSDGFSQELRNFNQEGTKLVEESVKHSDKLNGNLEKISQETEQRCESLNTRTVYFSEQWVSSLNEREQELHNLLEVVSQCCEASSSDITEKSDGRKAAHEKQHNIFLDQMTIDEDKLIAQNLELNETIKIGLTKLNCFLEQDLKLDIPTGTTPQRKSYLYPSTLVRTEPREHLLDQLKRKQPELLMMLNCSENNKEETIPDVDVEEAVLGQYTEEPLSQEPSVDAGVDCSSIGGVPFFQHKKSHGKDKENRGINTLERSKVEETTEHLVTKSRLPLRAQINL
In words: Inhibition of basal EG5 ATPase activity (unknown origin) by pyruvate kinase/lactate dehydrogenase enzyme coupled photometric assay.

For assay [2], the target named is T2, Kinesin-like protein KIF11 (Homo sapiens, UniProt P52732).
T2 sequence (P52732 whole entry): T1 sequence (whole entry)
In words: Inhibition of MT-stimulated EG5 ATPase activity (unknown origin) by pyruvate kinase/lactate dehydrogenase enzyme coupled photometric assay. The settings on record: for pIC50: read-out: IC50.

In assay [3] the target is T2, Kinesin-like protein KIF11. Kind of assay: Inhibition EG5 (unknown origin).

Take `CC(=O)N1N=C(NC2=NC(=O)/C(=C/c3cccs3)S2)SC1(C)c1ccccc1` (configuration not stated): in assay [1], the inhibition result was “inactive”. In assay [2], the pIC50 is 3.87.
In the case of `CC(=O)N1N=C(NC2=NC(=O)/C(=C/c3ccc(Cl)cc3)S2)SC1(C)c1ccccc1` (configuration not stated), the inhibition result in assay [1] was “inactive”. In assay [2], the pIC50 was 3.97.
On to `COc1ccc(/C=C/C=C2\SC(NC3=NN(C(C)=O)C(C)(c4ccccc4)S3)=NC2=O)cc1` (configuration not stated), for which the inhibition entry in assay [1] was “inactive”. Besides, the pIC50 in assay [2] is 3.38 to 4.05.
Regarding `CC(=O)N1N=C(NC2=NC(=O)/C(=C/c3ccc(Br)cc3)S2)SC1(C)c1ccccc1` (configuration not stated), the inhibition result in assay [1] is “inactive”. Further, the pIC50 in assay [2] was 4.41.
For the compound `CC(=O)N1N=C(NC2=NC(=O)/C(=C/c3ccccc3F)S2)SC1(C)c1ccccc1` (configuration not stated), the inhibition entry in assay [1] is “inactive”. The pIC50 in assay [2] is 3.88 to 4.15.
Taken in the same sequence, the figures for `CC(=O)N1N=C(NC2=NC(=O)/C(=C/c3ccco3)S2)SC1(C)c1ccccc1` (configuration not stated) were “inactive” and 3.48 to 3.92.
Turning to `CC(=O)N1N=C(NC2=NC(=O)/C(=C/c3ccccc3)S2)SC1(C)c1ccccc1` (configuration not stated), the inhibition entry in assay [1] is “inactive”. The pIC50 in assay [2] is 4.21.
On to `CC(=O)N1N=C(NC2=NC(=O)/C(=C/c3ccc(N(C)C)cc3)S2)SC1(C)c1ccccc1` (configuration not stated), for which the inhibition entry in assay [1] is “inactive”. Also, in assay [2], the pIC50 is 3.60 to 4.05.
Taken in the same sequence, the figures for `CC(=O)N1N=C(NC2=NC(=O)/C(=C/c3ccc(C)cc3)S2)SC1(C)c1ccccc1` (configuration not stated) were “inactive” and 4.20.
Take `CC(=O)N1N=C(NC2=NC(=O)/C(=C/C=C/c3ccccc3)S2)SC1(C)c1ccccc1` (configuration not stated): the inhibition entry in assay [1] is “inactive”. Further, the negative logarithm of the IC50 (pIC50) in assay [2] was 3.61 to 4.12.
With `COc1cccc(/C=C2\SC(NC3=NN(C(C)=O)C(C)(c4ccccc4)S3)=NC2=O)c1` (configuration not stated), the inhibition entry in assay [1] was “inactive”. Also, the pIC50 in assay [2] was 4.29.
Regarding `CC(=O)N1N=C(NC2=NC(=O)/C(=C/c3cccc(Cl)c3)S2)SC1(C)c1ccccc1` (configuration not stated), the inhibition entry in assay [1] was “inactive”. Moreover, the negative logarithm of the IC50 (pIC50) in assay [2] was 4.32.
Regarding `CC(=O)N1N=C(NC2=NC(=O)/C(=C/c3ccccc3[N+](=O)[O-])S2)SC1(C)c1ccccc1` (configuration not stated), the IC50 entry in assay [2] is given as “Active”.
`COc1ccc(/C=C2\SC(NC3=NN(C(C)=O)C(C)(c4ccccc4)S3)=NC2=O)cc1OC` (configuration not stated): in assay [1], the inhibition result is “inactive”. In assay [2], the pIC50 was 3.95 to 4.22.
`CC(=O)C1=NN(c2cc(C)ccc2F)C[C@]1(CCCN(C)C)c1ccccc1`: in assay [3], the pIC50 was 9.70.
Take `COc1cccc(/C=C2\SC(NC3=NN(C(C)=O)C(C)(c4ccccc4)S3)=NC2=O)c1OC` (configuration not stated): in assay [1], the inhibition entry is “inactive”. Further, in assay [2], the negative logarithm of the IC50 (pIC50) is 4.14.
As for `CC(=O)N1N=C(NC2=NC(=O)/C(=C/c3ccccc3Cl)S2)SC1(C)c1ccccc1` (configuration not stated), the inhibition entry in assay [1] was “inactive”. For the same compound, the pIC50 in assay [2] was 4.88.
As for `CC(=O)N1N=C(NC2=NC(=O)/C(=C/C=C/c3ccc(N(C)C)cc3)S2)SC1(C)c1ccccc1` (configuration not stated), the inhibition entry in assay [1] is “inactive”. In addition, the pIC50 in assay [2] was 3.89.
Taken in the same sequence, the figures for `COc1ccc(/C=C2\SC(NC3=NN(C(C)=O)C(C)(c4ccccc4)S3)=NC2=O)cc1` (configuration not stated) were “inactive” and 4.37.
In the case of `CC(=O)N1N=C(NC2=NC(=O)/C(=C/c3ccccn3)S2)SC1(C)c1ccccc1` (configuration not stated), the inhibition result in assay [1] was “inactive”. In addition, the pIC50 in assay [2] was 3.92.
On to `CC(=O)N1N=C(NC2=NC(=O)/C(=C/c3ccc(OCc4ccccc4)cc3)S2)SC1(C)c1ccccc1` (configuration not stated), for which, in assay [1], the inhibition result was “inactive”. In assay [2], the pIC50 was 4.76.
`CC1=C(C(=O)OC(C)C)C(c2ccc(Cl)cc2)n2c(s/c(=C\c3ccc(OCC(=O)O)cc3)c2=O)=N1` (configuration not stated): in assay [3], the pIC50 is 5.34.
Compound `CCNCCS(=O)(=O)NC[C@@]1(c2ccccc2)SC(NC(=O)C(C)(C)C)=NN1C(=O)C(C)(C)C` [LITRONESIB] gave a pIC50 in assay [3] of 8.15.
In the case of `CC(=O)NC1=NN(C(C)=O)C(C)(c2ccccc2)S1` (configuration not stated), the pIC50 in assay [2] is 6.10.
Consider `CC(=O)N1N=C(NC2=NC(=O)/C(=C/c3cccc([N+](=O)[O-])c3)S2)SC1(C)c1ccccc1` (configuration not stated), for which the inhibition result in assay [1] is “inactive”. Further, the pIC50 in assay [2] was 4.56.
Take `CC(=O)N1N=C(NC2=NC(=O)/C(=C/c3ccc([N+](=O)[O-])cc3)S2)SC1(C)c1ccccc1` (configuration not stated): the inhibition result in assay [1] was “inactive”. Besides, in assay [2], the pIC50 was 4.69.
